Experimental data published in PMC10599528, “GPC-100, a novel CXCR4 antagonist, improves in vivo hematopoietic cell mobilization when combined with propranolol” (PLOS ONE, 2023).
Like-named read-outs stand apart in the source and are kept apart here.

B1: G-CSF: Granulocyte-colony stimulating factor; recombinant murine G-CSF in the mouse studies (protein, UniProt P09920 31-208, looked up)
Granulocyte …: VPLVTVSALPPSLPLPRSFLLKSLEQVRKIQASGSVLLEQLCATYKLCHPEELVLLGHSLGIPKASLSGCSSQALQQTQCLSQLHSGLCLYQGLLQALSGISPALAPTLDLLQLDVANFATTIWQQMENLGVAPTVQPTQSAMPAFTSAFQRRAGGVLAISYLQGFLETARLALHHLA

Experiments:
MM.1S cells = experiment: CXCL12-induced transwell migration of MM.1S cells; conditions: Homo sapiens, MM1.S, 4 h, read-out: IC50, blockade of CXCL12-induced migration
Method: (§1) Cells were allowed to migrate toward CXCL12 in the presence or absence of the antagonists for 4 h (MM.1S) or 24 h (U937) at 37°C. The migration of U937 cells was measured using PrestoBlue Cell Viability Reagent (Invitrogen). For MM.1S cell line, the migrated cells were counted by flow cytometry. The fluorescence intensity (560 nm/590 nm excitation/emission) was detected using a Varioskan LUX Multimode Microplate Reader.
MM.1S (A) or U937 (B) cells were
(§2) suspended in serum-free media containing 0.5% BSA at 5X106 cells/ml and 100 μl of cell
(§3) suspension was added to transwell insert. SDF-1/CXCL12 at the indicated concentrations in 800
(§4) μl of serum-free media containing 0.5% BSA was added to the lower chamber of the transwell.
(§5) The transwell insert with 100 μl cell suspension was put on the lower chamber very carefully
(U937) to allow cell migration.

CXCR4 and β2AR = experiment: Calcium flux in MDA-MB-231 cells endogenously expressing CXCR4 and β2AR, CXCL12 plus epinephrine; type: cell-based; conditions: 10 μM of each antagonist; 200 nM CXCL12, 10 μM epinephrine
Method: MDA-MB-231 cells endogenously expressing CXCR4 and β2AR, or transduced with adenoviruses encoding CXCR4 for overexpression were used for calcium flux. Cells were cultured for 2 days prior to running the assay and seeded at 8×10^4 cells/well in a 96-well black clear-bottom microplate. The following day, cells were stained with Cal-520 AM (AAT Bioquest) for 2 h at 37°C and treated with antagonists for 30 min followed by agonist stimulation. Intracellular calcium flux was measured using a Flexstation 3 microplate reader (Molecular Devices).

U937 cells = experiment: CXCL12-mediated transwell migration of U937 cells; conditions: Homo sapiens, U-937, 24 h, read-out: IC50, blockade of CXCL12-mediated migration
Method: as §1
MM.1S (A) or U937 (B) cells were
as §2, §3, §4, §5
(U937) to allow cell migration.

circulating WBCs [1] = conditions: mice, 5 mg/kg SC; cited from earlier work
circulating WBCs [2] = experiment: In vivo WBC mobilization to peripheral blood (CBC analysis); design: species or system C57BL/6J mice
Method: Studies were performed at a facility accredited by the Association for Assessment and Accreditation of Laboratory Animal Care and in strict accordance with the recommendations in the Guide for the Care and Use of Laboratory Animals of the National Institute of Health. […] C57BL/6J mice (female, 6–9 weeks old) were ordered from Jackson Laboratories and allowed to habituate for one week before handling. They were housed 5 per cage and had free access to food and water.
Mice were monitored daily and weighed prior to drug administration. Based on the body weight data, mice were randomized into groups using the randomization tool in Benchling Studies randomization software. PB was collected by submental bleeding (non-terminal) or cardiac puncture (terminal). For terminal blood collections, mice were placed in an induction chamber with 2.5–4% isoflurane and then a maintenance dose of 2–3% through a nose cone. A toe pinch on all four quadrants was applied to confirm the surgical plane of anesthesia. Upon completion of terminal blood collection from cardiac puncture, the mice were euthanized via cervical dislocation while still under the effects of isoflurane. Approximately 25 μL blood was used for CBC analysis and the remaining blood was processed for flow cytometry or colony forming unit (CFU) assay. For non-terminal submental bleeding, a 4mm lancet was used to puncture the linguofacialis vein under the chin. […] For the time-course of mobilization, each mouse was bled twice. Submental bleeding was performed at 0.5 h, 1 h or 2 h after the respective dosing and cardiac puncture was performed at 3 h, 4 h and 6 h post-dose.
Blood samples were processed for complete blood count (CBC) analysis using the Abaxis VetScan HM5 hematology analyzer (Abaxis), which reports 18-parameters including WBC, lymphocytes, neutrophils, monocytes, platelets, hemoglobin, RBC and morphology.

CD34+ cells = conditions: at least; cited from earlier work

| Molecule | IC50 (MM.1S cells) [nM] | inhibition of synergistic calcium flux induced by CXCL12 and epinephrine (CXCR4 and β2AR) | IC50 (U937 cells) [nM] | time of peak mobilization (circulating WBCs [1]) [h] | increase in circulating WBCs compared to the vehicle (circulating WBCs [2]; 1 hour post-drug, GPC-100 30 mg/kg IV, AMD3100 5 mg/kg SC, single injection) [fold] | time of peak mobilization (circulating WBCs [2]; time-course 30 min to 6 hours post-drug, GPC-100 30 mg/kg IV, AMD3100 5 mg/kg SC) [h] | MM patients in whom an optimal number of HSC is not mobilized (CD34+ cells) | increase in WBC mobilization (circulating WBCs [2]; G-CSF 0.1 mg/kg SC BID days 2-6, propranolol 20 mg/kg IP 7 days, GPC-100 30 mg/kg IV or AMD3100 5 mg/kg SC day 7) [fold] |
| --- | --- | --- | --- | --- | --- | --- | --- | --- |
| c1cc(CN2CCCNCCNCCCNCC2)ccc1CN1CCCNCCNCCCNCC1 [AMD3100] | 80 | partially inhibited | 42 | 1 | 3 | 2 | – | – |
| CC(C)NCC(O)COc1cccc2ccccc12 (stereo not drawn) [propranolol] | – | partially inhibited | – | – | – | – | – | – |
| B1 | – | – | – | – | – | – | 40–50% | 4.5 |
